Several values for one entry are separate records, joined by “and”; a condition that tells them apart may be missing. Equal entries are not always repeated.
Tested on: 958667-338-R-J2-PDC tumor spheroids viability
Assay: Anticancer human tumor 958667-338-R-J2-PDC patient-derived colon adenocarcinoma cell line growth inhibition [PI3K]
Conditions: spheroids with HUVEC and MSC; for viability, T/C: stronger effect = lower value
In short: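 Combination activity was assessed by viability in multicellular tumor spheroids carrying HUVEC and MSC components. Agents were tested with PI3K inhibitors from a Cmax-based top dose (or 10 microM) downward in half-log increments.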

[1] = curve of first compound, second compound 0.0316 µM
[2] = curve of first compound, second compound 0.1 µM
[3] = curve of first compound, second compound 0.316 µM
[4] = curve of first compound, second compound 1 µM
[5] = second compound 0.0316 µM, first compound 0.0316 µM
[6] = second compound 0.0316 µM, first compound 0.1 µM
[7] = second compound 0.1 µM, first compound 0.0316 µM
[8] = second compound 0.1 µM, first compound 0.1 µM
[9] = second compound 0.316 µM, first compound 0.0316 µM
[10] = second compound 0.316 µM, first compound 0.1 µM
[11] = second compound 1 µM, first compound 0.0316 µM
[12] = second compound 1 µM, first compound 0.1 µM
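Further: spheroids exposed to compounds for seven days before readout.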

CC(=O)c1c(C)c2cnc(Nc3ccc(N4CCNCC4)cn3)nc2n(C2CCCC2)c1=O + CC(Nc1ncnc2nc[nH]c12)c1cc2cccc(Cl)c2c(=O)n1-c1ccccc1
IC50 [1]: > 100 nM
IC50 [2]: > 100 nM
IC50 [3]: > 100 nM
IC50 [4]: > 100 nM
IC50 (curve of first compound, second compound 3.16 µM): > 100 nM
IC50 (curve of first compound, second compound 10 µM): > 100 nM
viability, T/C (second compound 0.0316 µM, first compound 0.000316 µM): 106%
viability, T/C (second compound 0.0316 µM, first compound 0.001 µM): 101%
viability, T/C (second compound 0.0316 µM, first compound 0.00316 µM): 95.3%
viability, T/C (second compound 0.0316 µM, first compound 0.01 µM): 117%
viability, T/C [5]: 90.2%
viability, T/C [6]: 91.6%
viability, T/C (second compound 0.1 µM, first compound 0.000316 µM): 117%
viability, T/C (second compound 0.1 µM, first compound 0.001 µM): 103%
viability, T/C (second compound 0.1 µM, first compound 0.00316 µM): 89.2%
viability, T/C (second compound 0.1 µM, first compound 0.01 µM): 96.8%
viability, T/C [7]: 105%
viability, T/C [8]: 74.4%
viability, T/C (second compound 0.316 µM, first compound 0.000316 µM): 98.6%
viability, T/C (second compound 0.316 µM, first compound 0.001 µM): 89.5%
viability, T/C (second compound 0.316 µM, first compound 0.00316 µM): 91.3%
viability, T/C (second compound 0.316 µM, first compound 0.01 µM): 103%
viability, T/C [9]: 118%
viability, T/C [10]: 83.1%
viability, T/C (second compound 1 µM, first compound 0.000316 µM): 99.3%
viability, T/C (second compound 1 µM, first compound 0.001 µM): 126%
viability, T/C (second compound 1 µM, first compound 0.00316 µM): 95.4%
viability, T/C (second compound 1 µM, first compound 0.01 µM): 106%
viability, T/C [11]: 104%
viability, T/C [12]: 87.9%
viability, T/C (second compound 3.16 µM, first compound 0.000316 µM): 108%
viability, T/C (second compound 3.16 µM, first compound 0.001 µM): 71.5%
viability, T/C (second compound 3.16 µM, first compound 0.00316 µM): 118%
viability, T/C (second compound 3.16 µM, first compound 0.01 µM): 97.5%
viability, T/C (second compound 3.16 µM, first compound 0.0316 µM): 97%
viability, T/C (second compound 3.16 µM, first compound 0.1 µM): 95.7%
viability, T/C (second compound 10 µM, first compound 0.000316 µM): 103%
viability, T/C (second compound 10 µM, first compound 0.001 µM): 79.5%
viability, T/C (second compound 10 µM, first compound 0.00316 µM): 95%
viability, T/C (second compound 10 µM, first compound 0.01 µM): 101%
viability, T/C (second compound 10 µM, first compound 0.0316 µM): 90.4%
viability, T/C (second compound 10 µM, first compound 0.1 µM): 67.6%

C[C@@H](NC(=O)c1ncnc(N)c1Cl)c1ncc(C(=O)Nc2cc(C(F)(F)F)c(Cl)cn2)s1 + COc1c(OCCCN2CCOCC2)ccc2c3n(c(=NC(=O)c4cnc(N)nc4)nc12)CCN3
IC50 (curve of first compound, second compound 0.00316 µM): > 10000 nM
IC50 (curve of first compound, second compound 0.01 µM): > 10000 nM
IC50 [1]: > 10000 nM
IC50 [2]: > 10000 nM
IC50 [3]: < 31.6 nM
IC50 [4]: < 31.6 nM
viability, T/C (second compound 0.00316 µM, first compound 0.0316 µM): 96.1%
viability, T/C (second compound 0.00316 µM, first compound 0.1 µM): 88.5%
viability, T/C (second compound 0.00316 µM, first compound 0.316 µM): 107%
viability, T/C (second compound 0.00316 µM, first compound 1 µM): 110%
viability, T/C (second compound 0.00316 µM, first compound 3.16 µM): 116%
viability, T/C (second compound 0.00316 µM, first compound 10 µM): 66.7%
viability, T/C (second compound 0.01 µM, first compound 0.0316 µM): 96.3%
viability, T/C (second compound 0.01 µM, first compound 0.1 µM): 96.8%
viability, T/C (second compound 0.01 µM, first compound 0.316 µM): 111%
viability, T/C (second compound 0.01 µM, first compound 1 µM): 89.5%
viability, T/C (second compound 0.01 µM, first compound 3.16 µM): 69.9%
viability, T/C (second compound 0.01 µM, first compound 10 µM): 72.1%
viability, T/C [5]: 78.9%
viability, T/C [6]: 88.3%
viability, T/C (second compound 0.0316 µM, first compound 0.316 µM): 77.5%
viability, T/C (second compound 0.0316 µM, first compound 1 µM): 84.3%
viability, T/C (second compound 0.0316 µM, first compound 3.16 µM): 86.1%
viability, T/C (second compound 0.0316 µM, first compound 10 µM): 76.2%
viability, T/C [7]: 62.2%
viability, T/C [8]: 70.8%
viability, T/C (second compound 0.1 µM, first compound 0.316 µM): 68.1%
viability, T/C (second compound 0.1 µM, first compound 1 µM): 82.1%
viability, T/C (second compound 0.1 µM, first compound 3.16 µM): 83.2%
viability, T/C (second compound 0.1 µM, first compound 10 µM): 59.8%
viability, T/C [9]: 34.3%
viability, T/C [10]: 37.2%
viability, T/C (second compound 0.316 µM, first compound 0.316 µM): 44.1%
viability, T/C (second compound 0.316 µM, first compound 1 µM): 42%
viability, T/C (second compound 0.316 µM, first compound 3.16 µM): 57.3%
viability, T/C (second compound 0.316 µM, first compound 10 µM): 34.2%
viability, T/C [11]: 20.4%
viability, T/C [12]: 19.5%
viability, T/C (second compound 1 µM, first compound 0.316 µM): 20.1%
viability, T/C (second compound 1 µM, first compound 1 µM): 20.9%
viability, T/C (second compound 1 µM, first compound 3.16 µM): 15.2%
viability, T/C (second compound 1 µM, first compound 10 µM): 5.92%

CC(=O)c1c(C)c2cnc(Nc3ccc(N4CCNCC4)cn3)nc2n(C2CCCC2)c1=O
viability, T/C (compound 0.000316 µM): 110% [middle of 4 runs]
viability, T/C (compound 0.00316 µM): 107% [middle of 4 runs]
viability, T/C (compound 0.01 µM): 109% (2×) and 88% and 111%
viability, T/C (compound 0.0316 µM): 99.5% and 114% (2×) and 106%
viability, T/C (compound 0.1 µM): 93.8% [middle of 4 runs]
IC50 (curve of compound): > 100 nM

Reference: PubChem BioAssay AID1963963 (Molecular Pharmacology Branch, DTP, NCI, 2024)
